# Laboratory results: US7687465B2, “Therapeutic cancer vaccine” (Kraeftens Bekaempelse, priority 2003, dated 2010)
# Tests used:
# [1] = system: peripheral blood T cells or TIL from melanoma patients; assay: ELISPOT IFN-γ secretion assay, T-cell responses against HLA-A2 binding ML-IAP peptides; assay type: cell-based, human
# Method: Peripheral blood was obtained from melanoma patients before vaccination and subsequent to a series of vaccinations. In order to identify peptide-specific T-cell precursors, peripheral blood lymphocytes (PBL) were used directly in the ELISPOT (designated direct ELISPOT). However, to extend the sensitivity of the ELISPOT assay, PBL were stimulated once in vitro prior to analysis^17,18. At day 0, PBL or crushed lymph nodes were thawed and plated in 2 ml/well at a concentration of 2×10^6 cells in 24-well plates (Nunc, Denmark) in X-vivo medium (Bio Whittaker, Walkersville, Md.), 5% heat-inactivated human serum, and 2 mM of L-glutamine in the presence of 10 μM of peptide. Two days later 20 IU/ml recombinant interleukin-2 (IL-2) (Chiron, Ratingen, Germany) was added to the cultures. The cultured cells were tested for reactivity in the ELISPOT on day 8.
# The ELISPOT assay used to quantify peptide epitope specific interferon-7 releasing effector cells was adapted from Lalvani et al.^37, and Scheibenbogen et al.^38. Briefly, nitrocellulose bottomed 96-well plates (MultiScreen MAIP N45, Millipore) were coated overnight at 4° C. with 7.5 μg/ml of anti-IFN-γ antibody (1-D1K, Mabtech, Sweden) in 75 μl sterile PBS. Subsequently, the wells were washed six times with PBS, and non-specific binding were blocked by X-vivo medium for 2 hours at 37° C. Freshly isolated PBL or cells, which had been stimulated once in vitro, were added in duplicates at different cell concentrations (from 10^6 to 10^5 cells per well for non-stimulated PBL, and from 3×10^5-3×10^4 cells per well for PBL which had been stimulated once in vitro), in 100 μl X-vivo medium. Peptides were then added to each well to a final concentration of 2 μM and incubated overnight at 37° C.
# The following day, media was discarded and the wells were washed (six times) with PBS containing 0.05% Tween (PBS/Tw) before the addition of biotinylated secondary antibody (7-B6-1-Biotin, Mabtech) at 0.5 μg/ml in 75 μl PBS containing 1% BSA and 0.02% NaN3 (PBS/BSA). The plates were incubated at room temperature for 2 hours. The wells were washed (six times) with PBS/Tw. Then 75 μl of Avidin-enzyme conjugate (AP-Avidin, Calbiochem) diluted 1:2000 in PBS/BSA were added to each well and incubated for 1 hour. The enzyme substrate NBT/BCIP was prepared freshly according to the manufacturers' instructions (Gibco, code 18280-016) and 75 μl were added to each well and incubated for 5-10 min. The reaction was terminated by washing with tap-water upon the emergence of dark purple spots. The spots were then counted using the AlphaImager System (Alpha Innotech, San Leandro, Calif., USA) and the peptide specific CTL frequency could be calculated as the number of spot-forming cells.
# To extend the sensitivity of the ELISPOT assay, PBL were stimulated once in vitro prior to analysis^17,18. At day 0, PBL or crushed lymph nodes were thawed and plated in 2 ml/well at a concentration of 2×10^6 cells in 24-well plates (Nunc, Denmark) in X-vivo medium (Bio Whittaker, Walkersville, Md.), 5% heat-inactivated human serum, and 2 mM of L-glutamine in the presence of 10 μM of peptide. Two days later 20 IU/ml recombinant interleukin-2 (IL-2) (Chiron, Ratingen, Germany) was added to the cultures. The cultured cells were tested for reactivity in the ELISPOT on day 12.
# The ELISPOT assay used to quantify peptide epitope-specific interferon-γ-releasing effector cells was performed as described previously^19. Briefly, nitrocellulose bottomed 96-well plates (MultiScreen MAIP N45, Millipore, Hedehusene, Denmark) were coated with anti-IFN-7 antibody (1-D1K, Mabtech, Nacka, Sweden). The wells were washed, blocked by X-vivo medium, and cells were added in duplicates at different cell concentrations. Peptides were then added to each well and the plates were incubated overnight. The following day, media was discarded and the wells were washed prior to addition of biotinylated secondary antibody (7-B6-1-Biotin, Mabtech). […]
# [2] = system: primary melanoma sections; assay: In situ detection of ML-IAP-reactive CTL with multimerized HLA-A2/peptide complexes; parameters: species or system human; settings: sections of primary melanoma from six patients
# Source text: In situ detection of ML-IAP-reactive CTL. Confocal laser scanning microscopy was used to detect CTL reacting with a Cy3-conjugated anti-CD8 antibody (red channel) and a fluorescein isothiocyanate-conjugated multimeric HLA-A2/ML-IAP280 construct (green channel) (first and second columns) or with a fluorescein isothiocyanate conjugated multimeric HLA-A2/ML-IAP245 construct (last column) in primary tumors from two HLA-A2-positive melanoma patients.
# HLA-A2 and ML-IAP245/HLA-A2-specific monomers were multimerized using dextran molecules, which were conjugated with both streptavidin and fluorescein isothiocyanate. Multimerized MHC complexes were used to stain acetone-fixed, frozen material as described previously^11,48 and antigen-specific cells were visualized using a confocal laser microscope. Sections of primary melanoma from six patients were analyzed, and ML-IAP280- and ML-IAP245-reactive CTL could readily be detected in situ in the tumor microenvironment in two of the patients (FIG. 4).
compound,measurement,setting,value
CC(C)C[C@H](NC(=O)[C@@H](N)CCCNC(=N)N)C(=O)N[C@@H](CCC(N)=O)C(=O)N[C@@H](CCC(=O)O)C(=O)N[C@@H](CCC(=O)O)C(=O)N[C@@H](CCCNC(=N)N)C(=O)N[C@H](C(=O)N[C@@H](CS)C(=O)N[C@@H](CCCCN)C(=O)N[C@H](C(=O)O)C(C)C)[C@@H](C)O [ML-IAP245],strength of spontaneous CTL response,"[1]; TIL and PBL from melanoma patients, in words",Weaker spontaneous responses
same,TIL samples in which a response against the peptide was detected,"[1]; TIL from melanoma patients (n=22), stimulated once in vitro with peptide, number of samples",five
same,PBL samples in which a response against the peptide was detected,"[1]; peripheral blood T cells from melanoma patients (n=7), stimulated once in vitro with peptide, number of samples",one
same,patients with peptide-reactive CTL detected in situ in the tumor microenvironment,[2],two
